Experimental findings from ChEMBL document CHEMBL5576061, “The role of the methoxy group in approved drugs” (Eur J Med Chem, 2024) are described below.

Sequence of Human immunodeficiency virus type 1 integrase (Q7ZJM1 whole entry): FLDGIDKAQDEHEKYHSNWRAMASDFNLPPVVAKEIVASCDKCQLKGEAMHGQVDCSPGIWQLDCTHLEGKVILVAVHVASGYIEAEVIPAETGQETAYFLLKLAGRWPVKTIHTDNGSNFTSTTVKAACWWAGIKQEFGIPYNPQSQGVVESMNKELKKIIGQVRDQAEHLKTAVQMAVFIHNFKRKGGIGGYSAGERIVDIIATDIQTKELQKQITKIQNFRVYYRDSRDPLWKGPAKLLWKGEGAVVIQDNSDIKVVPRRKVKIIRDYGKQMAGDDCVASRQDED

The subject of the first test is Hepatitis C virus. The test is described as follows: Antiviral activity against Hepatitis C virus genotype 1a infected in human Huh-7 cells assessed as reduction in viral infection. The class given is functional, organism-based, Hepacivirus hominis.
Details: not given
As to `COc1ccc2c(c1)[C@@H]1C[C@]1(C(=O)N1C[C@@H](C)O[C@@H](C)C1)Cn1c-2c(C2CCCCC2)c2ccc(C(=O)NS(=O)(=O)N(C)C)cc21`, the EC50 was found to be 0.012 µM.

The test system of a further test is Human immunodeficiency virus 1. In words: Antiviral activity against HIV-1 HTLV-IIIB infected in human MT4 cells assessed as reduction in virus induced cytopathic effect by immunofluorescence assay. It counts as functional, organism-based. The note with it: Human immunodeficiency virus 1, MT4. (In general: Protection from cytopathic effect is a common read-out in antiviral testing.)
As for `C=C[C@@H]1C[C@]1(NC(=O)[C@@H]1C[C@@H](Oc2ncc(OC)c3ccc(Cl)cc23)CN1C(=O)[C@@H](NC(=O)OC(C)(C)C)C(C)(C)C)C(=O)NS(=O)(=O)C1CC1`, the EC50 was 0.006 µM.
Consider `C=C[C@@H]1C[C@]1(NC(=O)[C@@H]1C[C@@H](Oc2ncc(OC)c3ccccc23)CN1C(=O)[C@@H](NC(=O)OC(C)(C)C)C(C)(C)C)C(=O)NS(=O)(=O)C1CC1`, for which the EC50 turned out to be 0.019 µM.
For the compound `C=C[C@@H]1C[C@]1(NC(=O)[C@@H]1C[C@@H](Oc2nccc3ccccc23)CN1C(=O)[C@@H](NC(=O)OC(C)(C)C)C(C)(C)C)C(=O)NS(=O)(=O)C1CC1`, the EC50 was 0.06 µM.
For the compound `C=C[C@@H]1C[C@]1(NC(=O)[C@@H]1C[C@@H](Oc2nccc3ccc(Cl)cc23)CN1C(=O)[C@@H](NC(=O)OC(C)(C)C)C(C)(C)C)C(=O)NS(=O)(=O)C1CC1`, the EC50 turned out to be 0.02 µM.

The test system of the next test is Human immunodeficiency virus 1. The test is described as follows: Antiviral activity against HIV-1 3B infected in human MT4 cells assessed as reduction in virus-induced cytopathic effect incubated for 4 days by MTT assay. The class given is functional, organism-based. The note with it: Human immunodeficiency virus 1, 3B, MT4, 96 h.
Regarding `CNC(=O)c1ccc(OC)c2c(C(=O)C(=O)N3CCN(C(=O)c4ccccc4)CC3)c[nH]c12`, the EC50 amounted to 0.00076 µM.
The same measure, in the same setting: the result for `CNC(=O)c1ncc(OC)c2c(C(=O)C(=O)N3CCN(C(=O)c4ccccc4)CC3)c[nH]c12` reads 0.00028 µM.

Another test deals with T1, Non-receptor tyrosine-protein kinase TYK2 (Homo sapiens, UniProt P29597). In words: Inhibition of TYK2 (unknown origin).
T1 sequence (P29597 whole entry): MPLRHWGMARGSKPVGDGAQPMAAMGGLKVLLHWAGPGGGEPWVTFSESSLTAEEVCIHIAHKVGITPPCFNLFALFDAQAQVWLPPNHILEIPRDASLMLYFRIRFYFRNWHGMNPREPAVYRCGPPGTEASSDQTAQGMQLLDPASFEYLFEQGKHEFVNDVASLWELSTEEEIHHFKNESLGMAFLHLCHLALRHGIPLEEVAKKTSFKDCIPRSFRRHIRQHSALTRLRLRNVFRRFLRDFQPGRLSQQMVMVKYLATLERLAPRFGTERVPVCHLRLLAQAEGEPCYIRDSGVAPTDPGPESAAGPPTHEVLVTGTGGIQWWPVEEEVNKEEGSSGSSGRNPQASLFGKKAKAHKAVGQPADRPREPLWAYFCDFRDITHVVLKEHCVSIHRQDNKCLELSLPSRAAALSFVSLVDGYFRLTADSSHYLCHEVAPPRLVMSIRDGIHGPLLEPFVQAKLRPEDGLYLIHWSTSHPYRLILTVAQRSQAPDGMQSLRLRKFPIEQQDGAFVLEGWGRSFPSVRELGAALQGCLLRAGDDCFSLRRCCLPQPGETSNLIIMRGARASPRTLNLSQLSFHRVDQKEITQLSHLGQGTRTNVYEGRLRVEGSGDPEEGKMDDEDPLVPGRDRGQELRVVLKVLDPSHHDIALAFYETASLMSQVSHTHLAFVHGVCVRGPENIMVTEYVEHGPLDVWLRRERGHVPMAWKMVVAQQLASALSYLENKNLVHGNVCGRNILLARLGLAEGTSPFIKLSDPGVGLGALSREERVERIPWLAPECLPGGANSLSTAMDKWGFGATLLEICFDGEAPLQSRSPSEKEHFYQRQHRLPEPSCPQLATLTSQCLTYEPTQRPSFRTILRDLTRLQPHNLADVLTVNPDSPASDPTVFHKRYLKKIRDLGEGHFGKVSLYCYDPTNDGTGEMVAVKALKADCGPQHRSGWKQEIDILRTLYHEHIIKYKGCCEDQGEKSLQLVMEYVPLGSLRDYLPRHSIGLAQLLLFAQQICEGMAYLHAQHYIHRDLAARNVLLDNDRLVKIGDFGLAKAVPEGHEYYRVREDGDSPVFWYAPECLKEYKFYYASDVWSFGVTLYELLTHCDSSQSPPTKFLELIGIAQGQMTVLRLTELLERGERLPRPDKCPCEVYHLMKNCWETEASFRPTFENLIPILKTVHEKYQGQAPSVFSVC
Details: not given
On to `CNC(=O)c1cnc(NC(=O)C2CC2)cc1Nc1cccc(-c2ncn(C)n2)c1OC`, for which half-maximal inhibition (IC50) required 0.0007 µM.
In the case of `CNC(=O)c1cnc(Nc2cc(C)c(F)cn2)cc1Nc1cccc(-c2ncn(C)n2)c1OC`, 0.0004 µM corresponded to half-maximal inhibition (IC50).
In the case of `[2H]C([2H])([2H])NC(=O)c1cnc(NC(=O)C2CC2)cc1Nc1cccc(-c2ncn(C)n2)c1OC`, half-maximal inhibition (IC50) was put at 0.0003 µM.

Molecular target in the next test: not listed separately
The test is described as follows: Inhibition of tyrosine kinase (unknown origin). Set-up: species or system Homo sapiens.
Details: not given
`COc1cc(Nc2c(C#N)cnc3cc(OC)c(OC)cc23)c(Cl)cc1Cl`: the midpoint of inhibition, the IC50, lay at 0.0043 µM.
`COc1cc2ncc(C#N)c(Nc3ccc(Cl)cc3Cl)c2cc1OC` had an IC50 of 0.03 µM. Against the preceding compound, the IC50 is about 7-fold higher.
Compound `COc1cc(Nc2c(C#N)cnc3cc(OCCCN4CCOCC4)c(OC)cc23)c(Cl)cc1Cl` gave an IC50 of 0.0008 µM.
For `COc1ccc2ncc(C#N)c(Nc3ccc(Cl)cc3Cl)c2c1`, it took 0.32 µM to reach half-maximal inhibition (IC50).
Consider `COc1ccc2c(Nc3ccc(Cl)cc3Cl)c(C#N)cnc2c1`, for which the IC50 was 0.2 µM.
As to `COc1cc2ncc(C#N)c(Nc3cc(O)c(Cl)cc3Cl)c2cc1OC`, the IC50 was 0.19 µM.
Compound `CCOc1cc(Nc2c(C#N)cnc3cc(OC)c(OC)cc23)c(Cl)cc1Cl` yielded an IC50 of 1.2 µM. Compared with the last compound, the IC50 is about 6.3-fold higher.
Consider `N#Cc1cnc2cc(O)c(O)cc2c1Nc1ccc(Cl)cc1Cl`, for which the IC50 was above 1 µM.
On the same count and under the same terms, as for `N#Cc1cnc2ccccc2c1Nc1ccc(Cl)cc1Cl`, the figure is above 1 µM; as for `COc1cc(Nc2c(C#N)cnc3cc(OCCCN4CCN(C)CC4)c(OC)cc23)c(Cl)cc1Cl` [BOSUTINIB], 0.0012 µM.

Another test has as its target T1, Non-receptor tyrosine-protein kinase TYK2. In words: Inhibition of TYK2 (unknown origin) (575 to 869 residues) by HTRF assay.
Details: not given
`CNC(=O)c1cnc(Nc2ccc(F)cn2)cc1Nc1cccc(C(=O)NC)c1OC` had an IC50 of 0.0006 µM.
Same read-out and setting: the result for `CNC(=O)c1cccc(Nc2cc(Nc3ccc(F)cn3)ncc2C(=O)NC)c1` reads 0.044 µM.

A further test has as its system Human immunodeficiency virus 1. The test is described as follows: Antiviral activity against HIV-1 infected in human MT4 cells assessed as inhibition of viral growth. It counts as functional, organism-based. As to conditions: Human immunodeficiency virus 1, MT4.
Take `O=C(O)c1c[nH]c2ccc(Cc3cccc(Cl)c3F)cc2c1=O`: the EC50 amounted to 0.805 µM.
Take `O=C(O)c1cn(CCO)c2ccc(Cc3cccc(Cl)c3F)cc2c1=O`: the EC50 came to 0.0763 µM.
On the same count and under the same terms, the result for `O=C(O)c1cnc2ccc(Cc3ccccc3)cc2c1O` reads above 30 µM.

A further test has as its target Human immunodeficiency virus type 1 integrase (Human immunodeficiency virus 1, UniProt Q7ZJM1). The test is described as follows: Inhibition of HIV-1 integrase.
Details: not given
For the compound `C=C[C@@H]1C[C@]1(NC(=O)[C@@H]1C[C@@H](Oc2ncc(OC)c3ccccc23)CN1C(=O)[C@@H](NC(=O)OC(C)(C)C)C(C)(C)C)C(=O)NS(=O)(=O)C1CC1`, the IC50 was determined as 0.002 µM. This lies in the single-digit nanomolar range.
On the same count and under the same terms, the result for `C=C[C@@H]1C[C@]1(NC(=O)[C@@H]1C[C@@H](Oc2nccc3ccccc23)CN1C(=O)[C@@H](NC(=O)OC(C)(C)C)C(C)(C)C)C(=O)NS(=O)(=O)C1CC1` reads 0.007 µM.
On the same count and under the same terms, as for `C=C[C@@H]1C[C@]1(NC(=O)[C@@H]1C[C@@H](Oc2nccc3ccc(Cl)cc23)CN1C(=O)[C@@H](NC(=O)OC(C)(C)C)C(C)(C)C)C(=O)NS(=O)(=O)C1CC1`, the figure is 0.012 µM.

For a further test, the system named is Hepatitis C virus. The test is described as follows: Antiviral activity against Hepatitis C virus genotype 1b infected in human Huh-7 cells assessed as reduction in viral infection. It counts as functional, organism-based, Hepacivirus hominis.
Details: not given
Regarding `COc1ccc2c(c1)[C@@H]1C[C@]1(C(=O)N1C[C@@H](C)O[C@@H](C)C1)Cn1c-2c(C2CCCCC2)c2ccc(C(=O)NS(=O)(=O)N(C)C)cc21`, the EC50 is 0.024 µM.

The term EC50 denotes the concentration needed to bring the measured effect to its halfway point. In general, IC50 refers to the concentration at which inhibition is half-maximal.
